Usually IC50 stands for the concentration at which inhibition is half-maximal.

The target in one experiment is T1, Human NPY1 receptor (Homo sapiens, UniProt P25929).
T1 construct: host or cells: SK-N-MC cells
T1 sequence (P25929 1-384): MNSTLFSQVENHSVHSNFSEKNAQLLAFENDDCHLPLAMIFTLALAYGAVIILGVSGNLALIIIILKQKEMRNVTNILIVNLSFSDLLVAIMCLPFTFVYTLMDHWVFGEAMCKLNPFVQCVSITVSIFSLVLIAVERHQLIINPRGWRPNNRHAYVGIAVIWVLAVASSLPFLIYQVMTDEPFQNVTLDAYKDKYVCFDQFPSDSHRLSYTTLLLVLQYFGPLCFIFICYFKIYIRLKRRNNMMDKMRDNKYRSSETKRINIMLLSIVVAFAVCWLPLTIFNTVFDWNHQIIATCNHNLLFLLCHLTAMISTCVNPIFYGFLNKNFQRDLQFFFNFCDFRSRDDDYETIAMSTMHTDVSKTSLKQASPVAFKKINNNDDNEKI
Briefly: Human NPY1 receptor binding assay ([125I]PYY, SK-N-MC cells). As to conditions: [125I]PYY, SK-N-MC cells; read-out: hNPYI IC50. As for the experimental part:
A. Human NPY1 Receptor Binding Assay
This is a modification of Gordon et al., (J. Neurochem. 55:506-513, 1990). SK-N-MC cell (ATCC, Rockville, Md.) were plated in 24-well plates. Once confluent, cells were rinsed with Dulbecco's phosphate buffered saline (DPBS). Cells were then preincubated in binding buffer containing serum-free DMEM, 25 mM HEPES (pH 7.3), 0.5% bovine serum albumin (BSA), 0.1% bacitracin and 0.1 mM phenylmethylsulfonylfluoride for 30 minutes at room temperature. Drug dilution and [125I]PYY (˜50 pM: NEN-DuPont) were added to the wells, and the cells were incubated for an additional 3 hours at room temperature, followed by rinsing with ice-cold DPBS. Nonspecific binding was defined with 1 μM NPY. After lysing the cells with 1% Triton X-100, the amount of radioactivity in the lysates was quantitated with a gamma counter.

For a further experiment, the target named is T2, Y2 receptor (Homo sapiens, UniProt P49146).
T2 sequence (P49146 1-381): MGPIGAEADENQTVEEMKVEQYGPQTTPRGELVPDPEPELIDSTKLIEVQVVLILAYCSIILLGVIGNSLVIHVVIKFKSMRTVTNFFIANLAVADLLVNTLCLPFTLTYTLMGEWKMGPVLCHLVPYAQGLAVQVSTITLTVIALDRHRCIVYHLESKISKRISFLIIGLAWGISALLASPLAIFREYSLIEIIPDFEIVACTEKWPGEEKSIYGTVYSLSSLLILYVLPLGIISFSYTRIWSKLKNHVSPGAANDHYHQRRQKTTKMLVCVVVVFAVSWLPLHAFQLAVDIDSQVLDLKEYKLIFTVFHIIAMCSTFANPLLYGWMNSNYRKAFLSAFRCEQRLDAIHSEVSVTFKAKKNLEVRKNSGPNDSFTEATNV
Put plainly: Y2 receptor binding assay ([125I]PYY, membrane protein). The following applies: [125I]PYY, membrane protein; read-out: hNPY2 IC50. The method in brief: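 Filtration binding with membrane protein and drug dilution, 2 h at room temperature with mixing, radioactivity counted by gamma or scintillation. Y2: 25 pM [125I]PYY in Krebs-Ringer bicarbonate pH 7.4 with 0.01% BSA, nonspecific by 1 μM NPY. Y4/PP1: 50 pM [125I]hPP in HEPES-buffered saline pH 7.4 with protease inhibitors and 0.3% BSA, nonspecific by 1 μM hPP.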

The target in a further experiment is human Y4/PP1 receptor (Homo sapiens, UniProt P50391). Briefly: Human Y4/PP1 receptor binding assay ([125I]human PP, membrane protein). The following applies: [125I]human PP, membrane protein; read-out: hNPY4 IC50. Here is the method: B. Human Y2 and Y4/PP1 Receptor Binding Assays
Chain of human Y4/PP1 receptor (P50391 whole entry): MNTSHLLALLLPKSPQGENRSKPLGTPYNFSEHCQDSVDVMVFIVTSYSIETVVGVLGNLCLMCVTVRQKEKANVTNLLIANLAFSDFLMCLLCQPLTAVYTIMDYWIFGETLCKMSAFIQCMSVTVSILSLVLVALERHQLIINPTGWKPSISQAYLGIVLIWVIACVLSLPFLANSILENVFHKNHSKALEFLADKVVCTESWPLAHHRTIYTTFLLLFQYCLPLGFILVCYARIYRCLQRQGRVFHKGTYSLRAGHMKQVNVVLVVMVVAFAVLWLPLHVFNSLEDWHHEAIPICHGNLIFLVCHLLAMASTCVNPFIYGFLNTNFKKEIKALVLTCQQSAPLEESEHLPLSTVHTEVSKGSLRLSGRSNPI
Binding assays were performed on GF/C Millipore 96-well plates pretreated with 0.02% polyethylenimine. The binding buffer for rat Y2 binding is Krebs-Ringer bicarbonate (pH 7.4) containing 0.01% BSA and 0.005% bacitracin. Samples consist of membrane protein, 25 pM [1251]PYY and drug dilution. Nonspecific binding is defined by 1 μM NPY. The binding buffer for human Y4/PP1 binding consists of 137 mM NaCl, 5.4 mM KCl, 0.44 mM KH2PO4, 1.26 mM CaCl2, 0.81 mM MgSO4, 20 mM HEPES, 1 mM dithiothreitol, 0.1% bacitracin, 100 mg/l streptomycin sulfate, 1 mg/l aprotinin, 10 mg/ml soybean trypsin inhibitor and 0.3% BSA, pH 7.4. Samples consist of membrane protein, 50 pM human [1251]human PP (hPP: NEN DuPont, Boston, Mass.) and drug dilution. 1 μM hPP is used to define nonspecific binding.
After a 2 hour incubation at room temperature with constant mixing, the samples are aspirated on a vacuum manifold, and rinsed with ice-cold binding buffer. The amount of radioactivity in each well is quantitated with either gamma counting or liquid scintillation.

The target of the next experiment is T3, Human NPY5 receptor (Homo sapiens, UniProt Q15761).
T3 sequence (Q15761 1-445): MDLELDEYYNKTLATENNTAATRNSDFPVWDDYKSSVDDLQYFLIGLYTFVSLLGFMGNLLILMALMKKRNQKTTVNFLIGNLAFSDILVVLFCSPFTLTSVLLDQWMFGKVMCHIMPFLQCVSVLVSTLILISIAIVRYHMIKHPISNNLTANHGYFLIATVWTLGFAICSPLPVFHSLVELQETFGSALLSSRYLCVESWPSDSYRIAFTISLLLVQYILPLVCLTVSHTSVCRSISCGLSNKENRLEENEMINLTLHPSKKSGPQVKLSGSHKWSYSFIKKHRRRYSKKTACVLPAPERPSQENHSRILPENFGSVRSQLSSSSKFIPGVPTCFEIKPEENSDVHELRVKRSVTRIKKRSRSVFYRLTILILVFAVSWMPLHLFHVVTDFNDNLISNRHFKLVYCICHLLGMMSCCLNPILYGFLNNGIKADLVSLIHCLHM
Put plainly: Human NPY5 receptor binding assay ([125I]PYY, membrane protein). As to conditions: [125I]PYY, read-out: hNPY5 IC50. The method, boiled down:
(§1)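 Filter binding with membrane protein and porcine [125I]PYY at 75-100 pM, 2 h at room temperature; nonspecific binding set by 1 μM PYY.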

A further experiment deals with T4, Rat NPY5 receptor (Rattus norvegicus, UniProt Q63634).
T4 sequence (Q63634 1-445): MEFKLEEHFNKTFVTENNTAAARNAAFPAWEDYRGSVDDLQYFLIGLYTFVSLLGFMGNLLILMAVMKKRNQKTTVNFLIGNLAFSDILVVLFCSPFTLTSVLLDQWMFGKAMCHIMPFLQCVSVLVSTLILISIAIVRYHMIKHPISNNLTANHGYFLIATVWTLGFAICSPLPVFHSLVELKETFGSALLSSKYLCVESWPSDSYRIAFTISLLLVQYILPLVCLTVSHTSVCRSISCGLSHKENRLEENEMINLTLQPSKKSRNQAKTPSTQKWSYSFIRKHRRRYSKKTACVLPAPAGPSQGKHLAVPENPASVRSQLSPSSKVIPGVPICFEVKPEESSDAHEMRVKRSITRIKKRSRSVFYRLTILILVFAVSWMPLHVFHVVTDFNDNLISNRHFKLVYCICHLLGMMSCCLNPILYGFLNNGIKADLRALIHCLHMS
Put plainly: Rat NPY5 receptor binding assay ([125I]PYY, membrane protein). As to conditions: [125I]PYY, read-out: rNPY5 IC50. The method in brief:
as §1

Where a name gives a salt, the structure may show the parent alone.

`O=C(CN1CCC(n2c(=O)[nH]c3ccccc32)CC1)Nc1ccccc1Cl` [Compound 348, N-(2-Chloro-phenyl)-2-[4-(2-oxo-2,3-dihydro-benzoimidazol-1-yl)-piperidin-1-yl]-acetamide, reference compound]: the IC50 at Human NPY1 receptor is above 5 µM; on Y2 receptor it was above 5 µM; on human Y4/PP1 receptor it was above 5 µM; on Human NPY5 receptor it was 1200 nM; at Rat NPY5 receptor it was above 10000 nM.
Consider “N-(2-Amino-4-propylsulfnyl-phenyl)-2-[4-(2-oxo-2,3-dihydro-benzoimidazol-1-yl)-pipendin-1-yl]-acetamide; compound with GENERIC INORGANIC NEUTRAL COMPONENT [Compound 339, reference compound]”, for which the IC50 at Human NPY1 receptor was above 5 µM; at Y2 receptor, above 5 µM; on human Y4/PP1 receptor, above 5 µM; on Human NPY5 receptor it was 34 nM; on Rat NPY5 receptor, 31 nM.
As to `CC(C(=O)Nc1ccc(-c2ccccc2)cc1)N1CCC(n2c(=O)[nH]c3ccccc32)CC1` (stereo not shown) [Compound 329, N-Biphenyl-4-yl-2-[4-(2-oxo-2,3-dihydro-benzoimidazol-1-yl)-piperidin-1-yl]-propionamide; hydrochloride], the IC50 is above 5 µM on Human NPY1 receptor; above 5 µM at Y2 receptor; above 5 µM on human Y4/PP1 receptor; 20 nM at Human NPY5 receptor; 16 nM at Rat NPY5 receptor.
Turning to `COc1ccc(NC(=O)CN2CCC(n3c(=O)[nH]c4ccccc43)CC2)cc1` [Compound 361, N-(4-Methoxy-phenyl)-2-[4-(2-oxo-2,3-dihydro-benzoimidazol-1-yl)-piperidin-1-yl]-acetamide, reference compound], the IC50 at Human NPY1 receptor is above 5 µM; on Y2 receptor, above 5 µM; at human Y4/PP1 receptor it was above 5 µM; at Human NPY5 receptor, 410 nM; on Rat NPY5 receptor, 539 nM.
Turning to `CCCCOc1ccc2ccc(NC(=O)CN3CCC(n4c(=O)[nH]c5ccccc54)CC3)cc2c1` [Compound 343, N-(7-Butoxy-naphthalen-2-yl)-2-[4-(2-oxo-2,3-dihydro-benzoimidazol-1-yl)-piperidin-1-yl]-acetamide, reference compound], the IC50 at Human NPY1 receptor was above 5 µM; on Y2 receptor it was above 5 µM; at human Y4/PP1 receptor it was above 5 µM; at Human NPY5 receptor, 110 nM; at Rat NPY5 receptor, 45 nM.
In the case of `O=C(CN1CCC(n2c(=O)[nH]c3ccccc32)CC1)Nc1ccc(-c2cnco2)cc1` [Compound 267, N-(4-Oxazol-5-yl-phenyl)-2-[4-(2-oxo-2,3-dihydro-benzoimidazol-1-yl)-piperidin-1-yl]-acetamide; hydrate], the half-maximal inhibitory concentration (IC50) at Human NPY1 receptor was above 5 µM; at Y2 receptor, above 5 µM; at human Y4/PP1 receptor, above 5 µM; on Human NPY5 receptor, 150 nM; on Rat NPY5 receptor, 150 nM.
As to `COC(=O)c1ccc(NC(=O)CN2CCC(n3c(=O)[nH]c4ccccc43)CC2)cc1` [Compound 360, 4-(2-[4-(2-Oxo-2,3-dihydro-benzoimidazol-1-yl)-piperidin-1-yl]-acetylamino)-benzoic acid methyl ester, reference compound], the IC50 was above 5 µM at Human NPY1 receptor; above 5 µM on Y2 receptor; above 5 µM on human Y4/PP1 receptor; 55 nM on Human NPY5 receptor; 56.2 nM at Rat NPY5 receptor.
Take `O=C(CN1CCC(n2c(=O)[nH]c3ccccc32)CC1)Nc1ccc(Cl)cc1` [Compound 358, N-(4-Chloro-phenyl)-2-[4-(2-oxo-2,3-dihydro-benzoimidazol-1-yl)-piperidin-1-yl]-acetamide, reference compound]: the IC50 was above 5 µM at Human NPY1 receptor; above 5 µM at Y2 receptor; above 5 µM on human Y4/PP1 receptor; 730 nM on Human NPY5 receptor; 443 nM at Rat NPY5 receptor.
As for `CCOc1ccc(NC(=O)CN2CCC(n3c(=O)[nH]c4ccccc43)CC2)cc1` [Compound 347, N-(4-Ethoxy-phenyl)-2-[4-(2-oxo-2,3-dihydro-benzoimidazol-1-yl)-piperidin-1-yl]-acetamide, reference compound], the concentration for half-maximal inhibition (IC50) was above 5 µM on Human NPY1 receptor; above 5 µM at Y2 receptor; above 5 µM on human Y4/PP1 receptor; 143 nM on Human NPY5 receptor; 130 nM at Rat NPY5 receptor.
Turning to `CN(C)c1ccc(NC(=O)CN2CCC(n3c(=O)[nH]c4ccccc43)CC2)cc1` [Compound 353, N-(4-Dimethylamino-phenyl)-2-[4-(2-oxo-2,3-dihydro-benzoimidazol-1-yl)-piperidin-1-yl]acetamide, reference compound], the IC50 on Human NPY1 receptor is above 5 µM; on Y2 receptor it was above 5 µM; at human Y4/PP1 receptor it was above 5 µM; at Human NPY5 receptor, 135 nM; at Rat NPY5 receptor, 187 nM.
For `O=C(CNCCCn1c(=O)[nH]c2ccccc21)Nc1ccc(-c2ccccc2)cc1` [Compound 277, N-Biphenyl-4-yl-2-[3-(2-oxo-2,3-dihydro-benzoimidazol-1-yl)-propylamino]-acetamide], the IC50 was above 5 µM on Human NPY1 receptor; above 5 µM at Y2 receptor; above 5 µM on human Y4/PP1 receptor; 890 nM on Human NPY5 receptor; 1600 nM at Rat NPY5 receptor.
